This note sets out measurements from patent US12350270B2, “Antimalarial agents” (Merck Sharp & Dohme LLC, priority 2019, dated 2025).

The test system of the first test is parasites (ring stage, in human red blood cell culture). The test is described as follows: Parasite LDH growth assay (antiparasite potency, Parasite Assay). The test is classed as cell-based, Plasmodium falciparum. The conditions noted are these: 0.7% rings, 2% haematocrit, 72 hours at 37° C., LDH readout of parasite growth. A digest of the protocol:
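Growth was read by an LDH assay after a freeze–thaw cycle (−80 °C overnight, 4 h thaw at RT). Before that, parasites grew with compound for 72 h at 37 °C under gassed, humidified conditions. The input was a ring-stage culture adjusted to 0.7% parasitemia and 2% haematocrit in serum (5%)/albumax (0.5%)-supplemented RPMI-Hepes.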
Molecule `COCC1(C)Oc2ccc(C(=O)N[C@@H]3c4ccccc4OC(C)(C)[C@H]3O)cc2C1N1C(=N)NC(C)(C)CC1=O` (stereo partly drawn) [Example 256, N-[(3S,4R)-3-hydroxy-2,2-dimethyl-chroman-4-yl]-3-(2-imino-4,4-dimethyl-6-oxo-hexahydropyrimidin-1-yl)-2-(methoxymethyl)-2-methyl-3H-benzofuran-5-carboxamide] gave an EC50 of 8.9 nM.
The same measure, in the same setting: the result for `COCC1(C)Oc2ccc(C(=O)N[C@@H]3c4ccccc4OC(C)(C)[C@H]3O)cc2C1N1C(=N)NC(C)(C)CC1=O` (stereo partly drawn) [Example 257, N-[(3S,4R)-3-hydroxy-2,2-dimethyl-chroman-4-yl]-3-(2-imino-4,4-dimethyl-6-oxo-hexahydropyrimidin-1-yl)-2-(methoxymethyl)-2-methyl-3H-benzofuran-5-carboxamide] reads 189 nM.

Staying with this test, now noted: Plasmodium falciparum, Erythrocyte, 72 h, 0.7% rings, 2% haematocrit, 72 hours at 37° C., LDH readout of parasite growth.
For `CCC1(CC)CC(=O)N([C@H]2c3cc(C(=O)N[C@@H]4c5ccccc5OC(C)(C)[C@H]4O)ccc3OC[C@H]2C)C(=N)N1` [Example 241, (3S,4R)-4-(4,4-diethyl-2-imino-6-oxo-hexahydropyrimidin-1-yl)-N-[(3S,4R)-3-hydroxy-2,2-dimethyl-chroman-4-yl]-3-methyl-chromane-6-carboxamide], the concentration giving a half-maximal response (EC50) stood at 0.4 nM.
`CC[C@]1(C)CC(=O)N(C2c3cc(C(=O)N[C@@H]4c5ccccc5OC(C)(C)[C@H]4O)ccc3OCC2(C)C)C(=N)N1` (stereo partly drawn) [Example 243, 4-[(4R)-4-ethyl-2-imino-4-methyl-6-oxo-hexahydropyrimidin-1-yl]-N-[(3S,4R)-3-hydroxy-2,2-dimethyl-chroman-4-yl]-3,3-dimethyl-chromane-6-carboxamide] yielded an EC50 of 6.1 nM.
On the same count and under the same terms, the result for `CCC1(CC)CC(=O)N(C2c3cc(C(=O)N[C@@H]4c5ccccc5C[C@H]4O)ccc3OCC2(C)COC)C(=N)N1` (stereo partly drawn) [Example 244, 4-(4,4-diethyl-2-imino-6-oxo-hexahydropyrimidin-1-yl)-N-[(1R,2R)-2-hydroxyindan-1-yl]-3-(methoxymethyl)-3-methyl-chromane-6-carboxamide] reads 7.8 nM.
The same measure, in the same setting: the result for `CCC1(CC)CC(=O)N([C@H]2c3cc(C(=O)N[C@@H]4c5ccccc5OC(C)(C)[C@H]4O)ccc3OC2(C)C)C(=N)N1` [Example 245, (3S)-3-(4,4-diethyl-2-imino-6-oxo-hexahydropyrimidin-1-yl)-N-[(3S,4R)-3-hydroxy-2,2-dimethyl-chroman-4-yl]-2,2-dimethyl-3H-benzofuran-5-carboxamide] reads 0.8 nM; that for `CCC1(CC)CC(=O)N([C@@H]2C[C@@H](C)Oc3ccc(C(=O)N[C@@H]4c5ccccc5OC(C)(C)[C@H]4O)cc32)C(=N)N1` [Example 246, (2R,4R)-4-(4,4-diethyl-2-imino-6-oxo-hexahydropyrimidin-1-yl)-N-[(3S,4R)-3-hydroxy-2,2-dimethyl-chroman-4-yl]-2-methyl-chromane-6-carboxamide], 2 nM; that for `CCC1(CC)CC(=O)N([C@H]2c3cc(C(=O)N[C@@H]4c5ccccc5OC[C@@]4(C)O)ccc3CC[C@@H]2OC)C(=N)N1` [Example 247, (3S,4S)-4-(4,4-diethyl-2-imino-6-oxo-hexahydropyrimidin-1-yl)-N-[(3S,4R)-3-hydroxy-3-methyl-chroman-4-yl]-3-methoxy-tetralin-6-carboxamide], 4.5 nM.
Still for that read-out and setting: the result for `CCC1(CC)CC(=O)N([C@@H]2CCCOc3ccc(C(=O)N[C@@H]4c5ccccc5OC(C)(C)[C@H]4O)cc32)C(=N)N1` [Example 248, (5R)-5-(4,4-diethyl-2-imino-6-oxo-hexahydropyrimidin-1-yl)-N-[(3S,4R)-3-hydroxy-2,2-dimethyl-chroman-4-yl]-2,3,4,5-tetrahydro-1-benzoxepine-7-carboxamide] reads 0.8 nM; that for `CCC1(CC)CC(=O)N([C@H]2c3cc(C(=O)N[C@@H]4c5ccccc5CC[C@H]4O)ccc3O[C@@]2(C)COC)C(=N)N1` [Example 249, (2R,3S)-3-(4,4-diethyl-2-imino-6-oxo-hexahydropyrimidin-1-yl)-N-[(1R,2R)-2-hydroxytetralin-1-yl]-2-(methoxymethyl)-2-methyl-3H-benzofuran-5-carboxamide], 1.1 nM.
As for `CCC1(CC)CC(=O)N([C@H]2c3cc(C(=O)N[C@H]4c5ccccc5CC[C@@H]4O)ccc3O[C@@]2(C)COC)C(=N)N1` [Example 250, (2R,3S)-3-(4,4-diethyl-2-imino-6-oxo-hexahydropyrimidin-1-yl)-N-[(1S,2S)-2-hydroxytetralin-1-yl]-2-(methoxymethyl)-2-methyl-3H-benzofuran-5-carboxamide], a half-maximal response (EC50) required 219 nM.
The same measure, in the same setting: with `CC[C@]1(C)CC(=O)N([C@H]2c3cc(C(=O)N[C@@H]4c5ccccc5OC[C@@]4(C)O)ccc3OC[C@@H]2COC)C(=N)N1` [Example 252, (3S,4R)-4-[(4R)-4-ethyl-2-imino-4-methyl-6-oxo-hexahydropyrimidin-1-yl]-N-[(3S,4R)-3-hydroxy-3-methyl-chroman-4-yl]-3-(methoxymethyl)chromane-6-carboxamide] the figure was 2.1 nM.
As to `CCC1(CC)CC(=O)N([C@H]2c3cc(C(=O)N[C@@H]4c5ccccc5OC[C@]4(C)O)ccc3OC[C@@H]2OC)C(=N)N1` [Example 253, (3R,4S)-4-(4,4-diethyl-2-imino-6-oxo-hexahydropyrimidin-1-yl)-N-[(3R,4R)-3-hydroxy-3-methyl-chroman-4-yl]-3-methoxy-chromane-6-carboxamide], it took 4.3 nM to reach a half-maximal effect (EC50).
Still for that read-out and setting: the result for `CCC1(CC)CC(=O)N([C@H]2c3cc(C(=O)N[C@@H]4c5ccccc5OC[C@@]4(C)O)ccc3OC[C@@H]2OC)C(=N)N1` [Example 254, (3R,4S)-4-(4,4-diethyl-2-imino-6-oxo-hexahydropyrimidin-1-yl)-N-[(3S,4R)-3-hydroxy-3-methyl-chroman-4-yl]-3-methoxy-chromane-6-carboxamide] reads 3.4 nM; that for `CC[C@]1(C)CC(=O)N([C@H]2c3cc(C(=O)N[C@@H]4c5ccccc5OC(C)(C)[C@H]4O)ccc3OC[C@@H]2OC)C(=N)N1` [Example 255, (3R,4S)-4-[(4R)-4-ethyl-2-imino-4-methyl-6-oxo-hexahydropyrimidin-1-yl]-N-[(3S,4R)-3-hydroxy-2,2-dimethyl-chroman-4-yl]-3-methoxy-chromane-6-carboxamide], 3.3 nM.
`CCC1(CC)CC(=O)N([C@@H]2CCS(=O)(=O)c3ccc(C(=O)N[C@@H]4c5ccccc5C[C@@]4(C)O)cc32)C(=N)N1` [Example 260, (4R)-4-(4,4-diethyl-2-imino-6-oxo-hexahydropyrimidin-1-yl)-N-[(1R,2R)-2-hydroxy-2-methyl-indan-1-yl]-1,1-dioxo-3,4-dihydro-2H-thiochromene-6-carboxamide] displayed an EC50 of 8.2 nM.
Still for that read-out and setting: the result for `CCC1(CC)CC(=O)N([C@H]2CCS(=O)(=O)c3ccc(C(=O)N[C@@H]4c5ccccc5C[C@@]4(C)O)cc32)C(=N)N1` [Example 261, (4S)-4-(4,4-diethyl-2-imino-6-oxo-hexahydropyrimidin-1-yl)-N-[(1R,2R)-2-hydroxy-2-methyl-indan-1-yl]-1,1-dioxo-3,4-dihydro-2H-thiochromene-6-carboxamide] reads 133 nM; that for `CCC1(CC)CC(=O)N([C@@H]2CCS(=O)(=O)c3ccc(C(=O)N[C@@H]4c5ccccc5C[C@]4(C)O)cc32)C(=N)N1` [Example 262, (4R)-4-(4,4-diethyl-2-imino-6-oxo-hexahydropyrimidin-1-yl)-N-[(1R,2S)-2-hydroxy-2-methyl-indan-1-yl]-1,1-dioxo-3,4-dihydro-2H-thiochromene-6-carboxamide], 7.4 nM; that for `CCC1(CC)CC(=O)N([C@H]2CCS(=O)(=O)c3ccc(C(=O)N[C@@H]4c5ccccc5C[C@]4(C)O)cc32)C(=N)N1` [Example 263, (4S)-4-(4,4-diethyl-2-imino-6-oxo-hexahydropyrimidin-1-yl)-N-[(1R,2S)-2-hydroxy-2-methyl-indan-1-yl]-1,1-dioxo-3,4-dihydro-2H-thiochromene-6-carboxamide], 74.8 nM.
On the same count and under the same terms, with `CCC1(CC)CC(=O)N([C@@H]2CCOc3ccc(C(=O)NC(CCc4ccccc4)c4ccccc4)cc32)C(=N)N1` (stereo partly drawn) [Example 264, (4R)-4-(4,4-diethyl-2-imino-6-oxo-hexahydropyrimidin-1-yl)-N-(1,3-diphenylpropyl)chromane-6-carboxamide] the figure was 3.3 nM; with `CC1(C)CC(=O)N([C@@H]2CCS(=O)(=O)c3ccc(C(=O)N[C@@H]4c5ccccc5OC(C)(C)[C@H]4O)cc32)C(=N)N1` [Example 265, (4R)-N-[(3S,4R)-3-hydroxy-2,2-dimethyl-chroman-4-yl]-4-(2-imino-4,4-dimethyl-6-oxo-hexahydropyrimidin-1-yl)-1,1-dioxo-3,4-dihydro-2H-thiochromene-6-carboxamide], 31.1 nM.
On the same count and under the same terms, the result for `CCC1(CC)CC(=O)N([C@@H]2CCOc3ccc(C(=O)N[C@@H]4c5cc(Cl)ccc5OC[C@@]4(C)O)cc32)C(=N)N1` [Example 266, (4R)-N-[(3S,4R)-6-chloro-3-hydroxy-3-methyl-chroman-4-yl]-4-(4,4-diethyl-2-imino-6-oxo-hexahydropyrimidin-1-yl)chromane-6-carboxamide] reads 2.6 nM; that for `CC[C@]1(C)CC(=O)N([C@@H]2CCOc3ccc(C(=O)N[C@@H]4C[C@@H](COC(F)F)Oc5ccccc54)cc32)C(=N)N1` [Example 267, (4R)-N-[(2S,4R)-2-(difluoromethoxymethyl)chro-man-4-yl]-4-[(4R)-4-ethyl-2-imino-4-methyl-6-oxo-hexahydropyrimidin-1-yl]chromane-6-carboxamide], 24 nM; that for `CC[C@]1(C)CC(=O)N([C@@H]2CCOc3ccc(C(=O)N[C@@H]4C[C@H](COC(F)F)Oc5ccccc54)cc32)C(=N)N1` [Example 268, (4R)-N-[(2R,4R)-2-(difluoromethoxymethyl)chro-man-4-yl]-4-[(4R)-4-ethyl-2-imino-4-methyl-6-oxo-hexahydropyrimidin-1-yl]chromane-6-carboxamide], 25 nM.

In general, EC50 refers to the concentration needed to bring the measured effect to its halfway point. High values mean a less potent agent, low ones a more potent agent.
